Measured values: ChEMBL document CHEMBL1201862, “PubChem BioAssay data set” (2004)
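Growth conditions: 96-well plates. Treatment: test compound, 48 hours, 5 concentrations. Analysis: linear interpolation between bracketing concentrations; unreached endpoints set to highest concentration. GI50 = concentration required for 50% inhibition of growth.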 Activity calls are given as the source filed them. Rule as the data show it: active = GI50 up to about 1.1 µM and inactive = higher.

What was measured:
Assay in all cases: inhibition of tumour cell growth, NCI panel, 48 h
[1] = tested on: 786-0
[2] = tested on: A498
[3] = tested on: A549
[4] = tested on: ACHN
[5] = tested on: BT-549
[6] = tested on: CAKI-1
[7] = tested on: COLO 205
[8] = tested on: DU-145
[9] = tested on: EKVX
[10] = tested on: HCC 2998
[11] = tested on: HCT-116
[12] = tested on: HCT-15
[13] = tested on: HL-60
[14] = tested on: HOP-62
[15] = tested on: HOP-92
[16] = tested on: HT-29
[17] = tested on: Hs-578T
[18] = tested on: IGROV-1
[19] = tested on: K562
[20] = tested on: KM12
[21] = tested on: LOX IMVI
[22] = tested on: M14
[23] = tested on: MCF7
[24] = tested on: MDA-MB-231
[25] = tested on: MDA-MB-435
[26] = tested on: MOLT-4
[27] = tested on: NCI-H226
[28] = tested on: NCI-H460
[29] = tested on: NCI-H522
[30] = tested on: NCI/ADR-RES
[31] = tested on: OVCAR-3
[32] = tested on: OVCAR-4
[33] = tested on: OVCAR-5
[34] = tested on: OVCAR-8
[35] = tested on: PC-3
[36] = tested on: RPMI-8226
[37] = tested on: SF-268
[38] = tested on: SF-295
[39] = tested on: SF-539
[40] = tested on: SK-MEL-28
[41] = tested on: SK-MEL-2
[42] = tested on: SK-MEL-5
[43] = tested on: SK-OV-3
[44] = tested on: SN12C
[45] = tested on: SNB-19
[46] = tested on: SNB-75
[47] = tested on: SR
[48] = tested on: SW-620
[49] = tested on: T47D
[50] = tested on: TK-10
[51] = tested on: U-251
[52] = tested on: UACC-257
[53] = tested on: UACC-62
[54] = tested on: UO-31
[55] = tested on: CCRF-CEM
[56] = tested on: MDA-N
[57] = tested on: Malme-3M
[58] = tested on: NCI-H23

Compound: COC(=O)CN(CC1O[C@@H]2OC(C)(C)O[C@@H]2C1N=[N+]=[N-])C(=O)OCc1ccccc1 (some centres undefined)
- GI50 [1]: > 100 µM (inactive)
- GI50 [2]: > 100 µM (inactive)
- GI50 [3]: > 100 µM (inactive)
- GI50 [4]: > 100 µM (inactive)
- GI50 [5]: > 100 µM (inactive)
- GI50 [6]: > 100 µM (inactive)
- GI50 [7]: > 100 µM (inactive)
- GI50 [8]: > 100 µM (inactive)
- GI50 [9]: > 100 µM (inactive)
- GI50 [10]: > 100 µM (inactive)
- GI50 [11]: > 100 µM (inactive)
- GI50 [12]: > 100 µM
- GI50 [13]: 69.3 µM (inactive)
- GI50 [14]: > 100 µM (inactive)
- GI50 [15]: > 100 µM (inactive)
- GI50 [16]: > 100 µM (inactive)
- GI50 [17]: 16 µM (inactive)
- GI50 [18]: > 100 µM (inactive)
- GI50 [19]: 57 µM (inactive)
- GI50 [20]: > 100 µM (inactive)
- GI50 [21]: > 100 µM (inactive)
- GI50 [22]: > 100 µM (inactive)
- GI50 [23]: > 100 µM (inactive)
- GI50 [24]: > 100 µM (inactive)
- GI50 [25]: > 100 µM (inactive)
- GI50 [26]: 51.4 µM (inactive)
- GI50 [27]: > 100 µM (inactive)
- GI50 [28]: > 100 µM (inactive)
- GI50 [29]: > 100 µM (inactive)
- GI50 [30]: 30.9 µM (inactive)
- GI50 [31]: > 100 µM (inactive)
- GI50 [32]: > 100 µM (inactive)
- GI50 [33]: > 100 µM (inactive)
- GI50 [34]: > 100 µM (inactive)
- GI50 [35]: > 100 µM (inactive)
- GI50 [36]: > 100 µM (inactive)
- GI50 [37]: > 100 µM (inactive)
- GI50 [38]: > 100 µM (inactive)
- GI50 [39]: > 100 µM (inactive)
- GI50 [40]: > 100 µM (inactive)
- GI50 [41]: > 100 µM (inactive)
- GI50 [42]: > 100 µM (inactive)
- GI50 [43]: > 100 µM (inactive)
- GI50 [44]: > 100 µM (inactive)
- GI50 [45]: > 100 µM (inactive)
- GI50 [46]: > 100 µM (inactive)
- GI50 [47]: > 100 µM (inactive)
- GI50 [48]: > 100 µM (inactive)
- GI50 [49]: > 100 µM (inactive)
- GI50 [50]: > 100 µM (inactive)
- GI50 [51]: > 100 µM (inactive)
- GI50 [52]: > 100 µM (inactive)
- GI50 [53]: > 100 µM (inactive)
- GI50 [54]: > 100 µM (inactive)

Compound: CC1=C(C(=O)NNC(=O)c2ccccc2O)CC(C(=O)NNC(=O)c2ccccc2O)=C(C)N1
- GI50 [1]: 3.13 µM (inactive)
- GI50 [2]: 1.79 µM (inactive)
- GI50 [3]: 0.48 µM (active)
- GI50 [4]: 0.424 µM (active)
- GI50 [5]: 0.446 µM (active)
- GI50 [6]: 0.993 µM (active)
- GI50 [55]: 4.7 µM (inactive)
- GI50 [7]: 16.9 µM (inactive)
- GI50 [8]: 0.566 µM (active)
- GI50 [9]: 7.78 µM (inactive)
- GI50 [10]: 13.7 µM (inactive)
- GI50 [11]: 0.435 µM (active)
- GI50 [12]: 0.649 µM
- GI50 [13]: 0.512 µM (active)
- GI50 [14]: 5.46 µM (inactive)
- GI50 [16]: 7.93 µM (inactive)
- GI50 [17]: 0.197 µM (active)
- GI50 [18]: 0.302 µM (active)
- GI50 [19]: 0.338 µM (active)
- GI50 [20]: 0.384 µM (active)
- GI50 [21]: 2.58 µM (inactive)
- GI50 [22]: 2.22 µM (inactive)
- GI50 [23]: 0.612 µM (active)
- GI50 [24]: 5 µM (inactive)
- GI50 [25]: 0.425 µM (active)
- GI50 [56]: 0.336 µM (active)
- GI50 [26]: 0.522 µM (active)
- GI50 [57]: > 100 µM (inactive)
- GI50 [27]: 1.79 µM (inactive)
- GI50 [58]: 2.1 µM (inactive)
- GI50 [28]: 0.533 µM (active)
- GI50 [29]: 2.72 µM (inactive)
- GI50 [30]: 0.448 µM (active)
- GI50 [31]: 1.55 µM (inactive)
- GI50 [32]: 9.4 µM (inactive)
- GI50 [33]: 22.6 µM (inactive)
- GI50 [34]: 0.845 µM (active)
- GI50 [36]: 0.752 µM (active)
- GI50 [37]: 0.22 µM (active)
- GI50 [38]: 0.535 µM (active)
- GI50 [39]: 0.796 µM (active)
- GI50 [40]: > 77.3 µM (inactive)
- GI50 [42]: 2.06 µM (inactive)
- GI50 [43]: 5.57 µM (inactive)
- GI50 [44]: 5.83 µM (inactive)
- GI50 [45]: 0.839 µM (active)
- GI50 [46]: 0.292 µM (active)
- GI50 [47]: 0.64 µM (active)
- GI50 [48]: 5.55 µM (inactive)
- GI50 [49]: 0.498 µM (active)
- GI50 [50]: > 47.3 µM (inactive)
- GI50 [51]: 0.459 µM (active)
- GI50 [52]: 27.2 µM (inactive)
- GI50 [53]: 0.389 µM (active)
- GI50 [54]: 0.277 µM (active)
